Experiments:
UGT3-SEQ ID NO: 74 = target: T1, UGT3-SEQ ID NO: 74 (Stevia rebaudiana, UniProt Q6VAA6); format: biochemical; details: CFE 0.05 mg/mL, UDP-glucose 1 mM
T1 construct: made in house; host or cells: Saccharomyces cerevisiae; unpurified soluble cell extract (CFE) from bead-lysed biomass
T1 sequence (Q6VAA6 1-460): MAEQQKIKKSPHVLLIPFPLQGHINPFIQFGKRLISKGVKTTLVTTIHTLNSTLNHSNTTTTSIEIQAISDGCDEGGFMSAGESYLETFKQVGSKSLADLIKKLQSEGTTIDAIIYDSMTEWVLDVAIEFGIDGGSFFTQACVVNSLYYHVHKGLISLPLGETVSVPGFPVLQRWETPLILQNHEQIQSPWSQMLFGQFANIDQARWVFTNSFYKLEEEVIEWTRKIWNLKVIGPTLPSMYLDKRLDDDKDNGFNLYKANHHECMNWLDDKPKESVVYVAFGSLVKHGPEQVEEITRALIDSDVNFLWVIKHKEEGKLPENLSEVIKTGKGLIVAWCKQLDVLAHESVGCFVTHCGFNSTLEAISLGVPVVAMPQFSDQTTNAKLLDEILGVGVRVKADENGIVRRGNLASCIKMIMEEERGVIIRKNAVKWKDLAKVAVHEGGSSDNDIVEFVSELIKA

[1] = system: CFE obtained from the Yarrowia lipolitica steviol glycoside producing strains; experiment: bioconversion of rebaudiosideA with CFE of Yarrowia lipolitica steviol glycoside producing strains, UDP-glucose, LC-MS; format: biochemical; details: rebaudiosideA 100-500 μM; CFE 0.1 mg/mL; UDP-glucose 1 mM; products rebaudioside D and rebaudioside M
Source text: Methods to obtain yeast strains expressing constructs encoding the steviol glycoside production pathway are described in WO2013/110673 and WO2015/007748. Here, different Yarrowia lipolitica strains were used: the parent strain (as negative control) and strains expressing the whole steviol glycoside production pathway. Cells were grow o/n in YEPD medium. After determining the optical density at 600 nm (respectively 1.00×10^10 cells/mL for the parent strain cultivation and 6.00-8.57×10^9 cells/mL for different Yarrowia lipolitica steviol glycoside producing strains), cells were lysed with 0.5 mm zirconia beads (see example 2 for details). The protein concentration of the thus obtained CFE were determined using Bradford reagent. The actual obtained protein concentrations ranged from 0,453 mg/mL to 0,771 mg/mL.
A dilution series of rebaudiosideA stock solutions was prepared at 0, 500, 1000, 1500, 2000 and 2500 μM in Van Eunen buffer. The CFE's were diluted in Van Eunen buffer to a concentration of 0.125 mg/m L. A 5 mM stock solution of UDP-glucose was prepared.
The reactions were set-up as described in example 2, only now the concentration of the CFE in the final reaction was doubled. Multiple samples were taken to follow the reactions.
In the reactions the final concentrations were: CFE, 0.1 mg/mL; UDP-glucose, 1 mM; rebaudiosideA, at 0, 100, 200, 300, 400, 500 μM. […]

[2] = suitable for use in carbonated beverages and many other foods; cited from earlier work
[3] = sweetness relative to sucrose; cited from earlier work
[4] = Type II diabetics; studies suggest; cited from earlier work
[5] = mildly hypertensive patients; studies suggest; cited from earlier work

Compound: C=C1C[C@@]23CC[C@H]4[C@@](C)(CCC[C@@]4(C)C(=O)O[C@@H]4O[C@H](CO)[C@@H](O)[C@H](O)[C@H]4O)[C@@H]2CC[C@]1(O[C@@H]1O[C@H](CO)[C@@H](O)[C@H](O[C@@H]2O[C@H](CO)[C@@H](O)[C@H](O)[C@H]2O)[C@H]1O[C@@H]1O[C@H](CO)[C@@H](O)[C@H](O)[C@H]1O)C3 [rebaudioside A]
- Vmax of rebaudiosideA formation (UGT3-SEQ ID NO: 74; substrate rebaudioside B 0-200 μM, 30° C., calculated with GraphPad 5): 0.0549±0.004 μmol/mg protein/min
- glycosylated products detected by LC-MS [1]: two glycosylated products of rebaudioside A were detected
- heat and pH stability [2]: heat and pH stable

Compound: C=C1C[C@@]23CC[C@H]4[C@@](C)(CCC[C@@]4(C)C(=O)O[C@@H]4O[C@H](CO)[C@@H](O)[C@H](O)[C@H]4O[C@@H]4O[C@H](CO)[C@@H](O)[C@H](O)[C@H]4O)[C@@H]2CC[C@]1(O[C@@H]1O[C@H](CO)[C@@H](O)[C@H](O[C@@H]2O[C@H](CO)[C@@H](O)[C@H](O)[C@H]2O)[C@H]1O[C@@H]1O[C@H](CO)[C@@H](O)[C@H](O)[C@H]1O)C3 [rebaudioside D]
- times sweeter than sucrose [3]: about 200 times

Compound: C=C1C[C@@]23CC[C@H]4[C@@](C)(CCC[C@@]4(C)C(=O)O[C@@H]4O[C@H](CO)[C@@H](O)[C@H](O)[C@H]4O)[C@@H]2CC[C@]1(O[C@@H]1O[C@H](CO)[C@@H](O)[C@H](O)[C@H]1O[C@@H]1O[C@H](CO)[C@@H](O)[C@H](O)[C@H]1O)C3 [stevioside]
- heat and pH stability [2]: heat and pH stable
- effect on blood glucose levels [4]: can reduce blood glucose levels
- effect on blood pressure [5]: can reduce blood pressure

Compound: rebaudioside B
- glycosylation of rebaudiosideB into rebaudiosideA by spent biomass derived material (UGT3-SEQ ID NO: 74; rebaudioside B 50-200 μM, samples 0-30 min, FIG. 2): very efficiently glycosylated

Reference: patent US10472661B2, “Method for increasing glycosylation of a composition comprising steviol glycosides” (DSM IP ASSETS B.V., priority 2014, dated 2019)
